# US9212182B2, “Bicyclic sulfonamide compounds as sodium channel inhibitors” (AMGEN INC., priority 2013, dated 2015)
# Biological target: Nav 1.7 (Homo sapiens (Human), UniProt Q15858)
# Experiment: in-vitro Nav 1.7 PX (IC50)
# Assay type: cell-based
# Details: not given
# Chain of Nav 1.7 (Q15858 whole entry): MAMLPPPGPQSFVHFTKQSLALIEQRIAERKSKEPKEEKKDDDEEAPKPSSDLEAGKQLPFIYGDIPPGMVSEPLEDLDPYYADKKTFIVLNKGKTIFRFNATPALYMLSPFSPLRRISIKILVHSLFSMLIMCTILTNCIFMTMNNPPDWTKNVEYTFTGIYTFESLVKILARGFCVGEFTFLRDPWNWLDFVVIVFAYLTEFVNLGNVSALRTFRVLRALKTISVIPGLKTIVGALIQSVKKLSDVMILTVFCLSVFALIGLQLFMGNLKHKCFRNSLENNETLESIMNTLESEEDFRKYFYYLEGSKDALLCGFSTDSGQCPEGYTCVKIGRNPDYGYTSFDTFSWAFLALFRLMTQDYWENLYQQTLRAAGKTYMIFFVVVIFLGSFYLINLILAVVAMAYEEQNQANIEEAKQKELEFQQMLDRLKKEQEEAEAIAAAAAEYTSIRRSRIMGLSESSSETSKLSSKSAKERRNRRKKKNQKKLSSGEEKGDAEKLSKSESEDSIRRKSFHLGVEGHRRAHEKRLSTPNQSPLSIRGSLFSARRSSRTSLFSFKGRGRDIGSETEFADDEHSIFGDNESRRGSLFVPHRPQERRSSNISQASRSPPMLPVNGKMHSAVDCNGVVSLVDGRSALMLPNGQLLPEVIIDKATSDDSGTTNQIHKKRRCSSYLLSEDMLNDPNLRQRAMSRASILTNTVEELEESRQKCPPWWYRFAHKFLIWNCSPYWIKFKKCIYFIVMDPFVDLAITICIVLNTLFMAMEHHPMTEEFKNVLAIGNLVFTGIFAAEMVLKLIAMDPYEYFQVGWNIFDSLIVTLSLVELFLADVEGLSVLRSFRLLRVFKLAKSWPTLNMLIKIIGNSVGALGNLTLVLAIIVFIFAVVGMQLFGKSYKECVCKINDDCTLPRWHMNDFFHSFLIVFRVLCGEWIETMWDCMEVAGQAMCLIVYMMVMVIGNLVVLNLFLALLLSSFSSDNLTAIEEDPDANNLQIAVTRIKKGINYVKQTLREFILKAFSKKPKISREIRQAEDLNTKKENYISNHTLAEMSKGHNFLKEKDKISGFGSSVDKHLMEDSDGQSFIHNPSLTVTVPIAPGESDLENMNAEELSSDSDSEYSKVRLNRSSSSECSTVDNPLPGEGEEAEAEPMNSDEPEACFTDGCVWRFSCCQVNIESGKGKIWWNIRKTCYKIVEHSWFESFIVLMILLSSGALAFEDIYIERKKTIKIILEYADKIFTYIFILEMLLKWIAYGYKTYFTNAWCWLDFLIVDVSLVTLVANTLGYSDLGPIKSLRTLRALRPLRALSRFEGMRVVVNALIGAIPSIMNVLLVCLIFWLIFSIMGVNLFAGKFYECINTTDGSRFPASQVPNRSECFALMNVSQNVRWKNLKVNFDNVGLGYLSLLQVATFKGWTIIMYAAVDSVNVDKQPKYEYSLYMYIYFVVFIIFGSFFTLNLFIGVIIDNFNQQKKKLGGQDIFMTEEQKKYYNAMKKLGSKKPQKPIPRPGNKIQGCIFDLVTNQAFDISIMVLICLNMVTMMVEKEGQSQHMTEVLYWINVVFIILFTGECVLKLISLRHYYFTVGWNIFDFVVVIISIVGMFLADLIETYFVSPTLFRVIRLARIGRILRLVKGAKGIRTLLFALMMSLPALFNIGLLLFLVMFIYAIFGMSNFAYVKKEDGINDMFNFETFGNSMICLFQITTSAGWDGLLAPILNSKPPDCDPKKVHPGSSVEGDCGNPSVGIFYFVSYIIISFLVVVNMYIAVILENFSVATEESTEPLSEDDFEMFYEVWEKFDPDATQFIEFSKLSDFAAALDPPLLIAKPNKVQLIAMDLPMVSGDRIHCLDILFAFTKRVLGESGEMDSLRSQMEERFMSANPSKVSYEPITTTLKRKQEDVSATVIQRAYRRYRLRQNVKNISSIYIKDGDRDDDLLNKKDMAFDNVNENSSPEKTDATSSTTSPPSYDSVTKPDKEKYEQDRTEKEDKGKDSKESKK
row,IC50 [nM],Structure (SMILES)
1,6230,"COc1ccc(-c2ccnn2C)cc1-n1c(=O)ccc2cc(S(=O)(=O)Nc3ccon3)ccc21 [Example 385, N-3-isoxazolyl-1-(2-methoxy-5-(1-methyl-1H-pyrazol-5-yl)phenyl)-2-oxo-1,2-dihydro-6-quinolinesulfonamide]"
2,13,"COc1cc(-c2cccc(C)c2)ccc1-n1c(=O)ccc2cc(S(=O)(=O)Nc3ccon3)ccc21 (atropisomer, axis not shown; (P)) [Example 584, (P)-N-3-isoxazolyl-1-(3-methoxy-3′-methyl-4-biphenylyl)-2-oxo-1,2-dihydro-6-quinolinesulfonamide]"
3,39,"COc1nc(OCc2cc(F)c(F)c(F)c2)c(Cl)cc1-n1c(=O)ccc2cc(S(=O)(=O)Nc3ccon3)ccc21 [Example 1218, 1-(5-chloro-2-methoxy-6-((3,4,5-trifluorobenzyl)oxy)-3-pyridinyl)-N-3-isoxazolyl-2-oxo-1,2-dihydro-6-quinolinesulfonamide]"
4,309,"COc1cc(-c2cc(F)cc(Cl)c2)c(C)cc1-n1c(=O)ccc2cc(S(=O)(=O)Nc3ccon3)ccc21 (atropisomer, axis not shown; (M)) [Example 418, (M)-1-(3′-chloro-5′-fluoro-5-methoxy-2-methyl-4-biphenylyl)-N-3-isoxazolyl-2-oxo-1,2-dihydro-6-quinolinesulfonamide]"

# Same assay, conditions: in-vitro Nav 1.7 PX data
row,Structure (SMILES),IC50 [nM]
1,"COc1cc(Cl)c(-c2cccc(F)c2)cc1-n1c(=O)ccc2cc(S(=O)(=O)Nc3ccon3)ccc21 (atropisomer, axis not shown; (P)) [Example 608, (P)-1-(6-chloro-3′-fluoro-4-methoxy-3-biphenylyl)-N-3-isoxazolyl-2-oxo-1,2-dihydro-6-quinolinesulfonamide]",12
2,"COc1cc(F)cc(-c2ccc(-n3c(=O)ccc4cc(S(=O)(=O)Nc5ccnc(C)n5)ccc43)c(OC)c2)c1 [Example 1003, 1-(3′-fluoro-3,5′-dimethoxy-4-biphenylyl)-N-(2-methyl-4-pyrimidinyl)-2-oxo-1,2-dihydro-6-quinolinesulfonamide]",1260
3,"COc1ccc(-c2cccc(Cl)c2C)cc1-n1c(=O)ccc2cc(S(=O)(=O)Nc3ccon3)ccc21 [Example 895, 1-(3′-chloro-4-methoxy-2′-methyl-3-biphenylyl)-N-3-isoxazolyl-2-oxo-1,2-dihydro-6-quinolinesulfonamide]",1840
4,"COc1cc(CC2CCCCC2)c(F)cc1-n1c(=O)ccc2cc(S(=O)(=O)Nc3ncc(F)cn3)ccc21 [Example 1111, 1-(4-(cyclohexylmethyl)-5-fluoro-2-methoxyphenyl)-N-(5-fluoro-2-pyrimidinyl)-2-oxo-1,2-dihydro-6-quinolinesulfonamide]",88
5,"COc1cc(Cl)c(-c2cc(F)cc(Cl)c2)cc1-n1c(=O)ccc2cc(S(=O)(=O)Nc3ccon3)ccc21 [Example 613, 1-(3′,6-dichloro-5′-fluoro-4-methoxy-3-biphenylyl)-N-3-isoxazolyl-2-oxo-1,2-dihydro-6-quinolinesulfonamide]",18
6,"COc1cc(C[C@@H]2C[C@@H]3CC[C@H]2O3)c(F)cc1-n1c(=O)ccc2cc(S(=O)(=O)Nc3ccon3)ccc21 [Example 1087, 1-(5-fluoro-2-methoxy-4-((1R,2R,4S)-7-oxabicyclo[2.2.1]hept-2-ylmethyl)phenyl)-N-3-isoxazolyl-2-oxo-1,2-dihydro-6-quinolinesulfonamide, 1-(5-fluoro-2-methoxy-4-((1S,2S,4R)-7-oxabicyclo[2.2.1]hept-2-ylmethyl)phenyl)-N-3-isoxazolyl-2-oxo-1,2-dihydro-6-quinolinesulfonamide]",1730
7,"COc1ccc(-c2cccc(Cl)c2)cc1-n1c(=O)ccc2cc(S(=O)(=O)Nc3ccon3)ccc21 [Example 841, 1-(3′-chloro-4-methoxy-3-biphenylyl)-N-3-isoxazolyl-2-oxo-1,2-dihydro-6-quinolinesulfonamide]",27
8,"Cc1cc(-c2cc(C)c(-n3c(=O)ccc4cc(S(=O)(=O)Nc5ncccn5)ccc43)cc2F)ccc1Cl (atropisomer, axis not shown; (M)) [Example 650, (M)-1-(4′-chloro-2-fluoro-3′,5-dimethyl-4-biphenylyl)-2-oxo-N-2-pyrimidinyl-1,2-dihydro-6-quinolinesulfonamide]",3800
9,"COc1cc(-c2ccccn2)c(F)cc1-n1c(=O)ccc2cc(S(=O)(=O)Nc3ccon3)ccc21 [Example 594, 1-(5-fluoro-2-methoxy-4-(2-pyridinyl)phenyl)-N-3-isoxazolyl-2-oxo-1,2-dihydro-6-quinolinesulfonamide]",1660
10,"COc1cc(-c2cccc(OC)c2Cl)c(F)cc1-n1c(=O)ccc2cc(S(=O)(=O)Nc3ccon3)ccc21 [Example 731, 1-(2′-chloro-2-fluoro-3′,5-dimethoxy-4-biphenylyl)-N-3-isoxazolyl-2-oxo-1,2-dihydro-6-quinolinesulfonamide]",142
11,"COc1ccc(C2CCOCC2)cc1-n1c(=O)ccc2cc(S(=O)(=O)Nc3ccon3)ccc21 [Example 620, N-3-isoxazolyl-1-(2-methoxy-5-(tetrahydro-2H-pyran-4-yl)phenyl)-2-oxo-1,2-dihydro-6-quinolinesulfonamide]",8100
12,"COc1cc(-c2ccc(Cl)c(C)c2)ccc1-n1c(=O)ccc2cc(S(=O)(=O)Nc3ncc(F)cn3)ccc21 (atropisomer, axis not shown; (P)) [Example 690, (P)-1-(4′-chloro-3-methoxy-3′-methyl-4-biphenylyl)-N-(5-fluoro-2-pyrimidinyl)-2-oxo-1,2-dihydro-6-quinolinesulfonamide]",49
13,"COc1cc([C@@H]2CCOC(C)(C)C2)c(F)cc1-n1c(=O)ccc2cc(S(=O)(=O)Nc3ccon3)ccc21 [Example 1096, 1-(4-((4R)-2,2-dimethyltetrahydro-2H-pyran-4-yl)-5-fluoro-2-methoxyphenyl)-N-3-isoxazolyl-2-oxo-1,2-dihydro-6-quinolinesulfonamide, 1-(4-((4S)-2,2-dimethyltetrahydro-2H-pyran-4-yl)-5-fluoro-2-methoxyphenyl)-N-3-isoxazolyl-2-oxo-1,2-dihydro-6-quinolinesulfonamide]",1120

# Other lines, results leading:
row,IC50 [nM],Structure (SMILES)
1,24,"COc1cc(-c2cc(C)ccc2F)c(C)cc1-n1c(=O)ccc2cc(S(=O)(=O)Nc3ncccn3)ccc21 [Example 970, 1-(2′-fluoro-5-methoxy-2,5′-dimethyl-4-biphenylyl)-2-oxo-N-2-pyrimidinyl-1,2-dihydro-6-quinolinesulfonamide]"
2,80,"COc1cc(-c2ccc(C)c(F)c2)c(F)cc1-n1c(=O)ccc2cc(S(=O)(=O)Nc3cc(C)ncn3)ccc21 [Example 1129, 1-(2,3′-difluoro-5-methoxy-4′-methyl-4-biphenylyl)-N-(6-methyl-4-pyrimidinyl)-2-oxo-1,2-dihydro-6-quinolinesulfonamide]"
3,48,"COc1cc(C)ccc1-c1cc(OC)c(-n2c(=O)ccc3cc(S(=O)(=O)Nc4ccon4)ccc32)cc1F [Example 793, 1-(2-fluoro-2′,5-dimethoxy-4′-methyl-4-biphenylyl)-N-3-isoxazolyl-2-oxo-1,2-dihydro-6-quinolinesulfonamide]"
4,14,"COc1cc(-c2cccc(C(F)(F)F)c2)c(F)cc1-n1c(=O)ccc2cc(S(=O)(=O)Nc3ccnc(C)n3)ccc21 [Example 804, 1-(2-fluoro-5-methoxy-3′-(trifluoromethyl)-4-biphenylyl)-N-(2-methyl-4-pyrimidinyl)-2-oxo-1,2-dihydro-6-quinolinesulfonamide]"
5,7,"COc1cc(-c2ccc(Cl)cc2C)c(F)cc1-n1c(=O)ccc2cc(S(=O)(=O)Nc3ccon3)ccc21 [Example 742, 1-(4′-chloro-2-fluoro-5-methoxy-2′-methyl-4-biphenylyl)-N-3-isoxazolyl-2-oxo-1,2-dihydro-6-quinolinesulfonamide]"
6,28,"COc1cc(-c2ccc(F)c(F)c2)c(C)cc1-n1c(=O)ccc2cc(S(=O)(=O)Nc3ncccn3)ccc21 [Example 958, 1-(3′,4′-difluoro-5-methoxy-2-methyl-4-biphenylyl)-2-oxo-N-2-pyrimidinyl-1,2-dihydro-6-quinolinesulfonamide]"
7,23,"COc1cc(-c2ccc(Cl)c(C)c2)c(F)cc1-n1c(=O)ccc2cc(S(=O)(=O)Nc3ccsn3)ccc21 [Example 1073, 1-(4′-chloro-2-fluoro-5-methoxy-3′-methyl-4-biphenylyl)-N-3-isothiazolyl-2-oxo-1,2-dihydro-6-quinolinesulfonamide]"
8,59,"COc1cc(-c2ccc(C(F)(F)F)cc2)c(F)cc1-n1c(=O)ccc2cc(S(=O)(=O)Nc3ccnc(C)n3)ccc21 [Example 799, 1-(2-fluoro-5-methoxy-4′-(trifluoromethyl)-4-biphenylyl)-N-(2-methyl-4-pyrimidinyl)-2-oxo-1,2-dihydro-6-quinolinesulfonamide]"
9,100,"COc1cc(-c2ccc(F)c(C)c2)c(F)cc1-n1c(=O)ccc2cc(S(=O)(=O)Nc3nnc(C)s3)ccc21 [Example 948, 1-(2,4′-difluoro-5-methoxy-3′-methyl-4-biphenylyl)-N-(5-methyl-1,3,4-thiadiazol-2-yl)-2-oxo-1,2-dihydro-6-quinolinesulfonamide]"

# Same assay, conditions: in-vitro Nav 1.7 PX data (PatchXpress)
row,IC50 [nM],Structure (SMILES)
1,10,"COc1cc(-c2cc(Cl)ccc2F)ccc1-n1c(=O)ccc2cc(S(=O)(=O)Nc3ccon3)ccc21 [Example 1034, 1-(5′-chloro-2′-fluoro-3-methoxy-4-biphenylyl)-N-3-isoxazolyl-2-oxo-1,2-dihydro-6-quinolinesulfonamide]"

# Same assay, conditions: in-vitro Nav 1.7 PX data, Table 4
row,IC50 [nM],Structure (SMILES)
1,12,"COc1cc(-c2cnc(OC)c(Cl)c2)c(F)cc1-n1c(=O)ccc2cc(S(=O)(=O)Nc3cccc(F)n3)ccc21 (atropisomer, axis not shown; (P)) [Example 1162, (P)-1-(4-(5-chloro-6-methoxy-3-pyridinyl)-5-fluoro-2-methoxyphenyl)-N-(6-fluoro-2-pyridinyl)-2-oxo-1,2-dihydro-6-quinolinesulfonamide]"

# Same assay, conditions: in-vitro PatchXpress (PX)
row,IC50 [nM],Structure (SMILES)
1,14600,"COc1cc(-c2cnn(C)c2)c(F)cc1-n1c(=O)ccc2cc(S(=O)(=O)Nc3ccon3)ccc21 [Example 405, 1-(5-fluoro-2-methoxy-4-(1-methyl-1H-pyrazol-4-yl)phenyl)-N-3-isoxazolyl-2-oxo-1,2-dihydro-6-quinolinesulfonamide]"
